Drawing on patent US7241785B2, “Five-membered heterocyclic alkanoic acid derivative” (Takeda Pharmaceutical Company Limited, priority 2001, dated 2007), this text covers melting point for 13 compounds.

As usually defined, the melting point is the temperature of the solid-liquid transition.

For `Cc1oc(-c2ccccc2)nc1CCOc1ccc(COc2nn(C)cc2CC(=O)O)cc1` [Example 22, [1-methyl-3-[4-[2-(5-methyl-2-phenyl-4-oxazolyl)ethoxy]benzyloxy]-1H-pyrazol-4-yl]acetic acid], the melting point lay in the range of 148 to 149 °C.
The figure for `COc1cc(COc2nn(-c3ccccc3)cc2CC(=O)N2CCOCC2)ccc1OCc1nc(-c2ccco2)oc1C` [Example 74, 4-[3-[4-[2-(2-furyl)-5-methyl1–4-oxazolylmethoxy]-3-methoxybenzyloxy]-1-phenyl-1H-pyrazol-4-yl]acetylmorpholine] is 132 to 133 °C; for `Cc1oc(-c2ccccc2)nc1COc1ccc(CCc2oc(-c3ccccc3)nc2CCC(=O)O)cc1` [Example 65, 3-[5-[2-[4-(5-methyl-2-phenyl-4-oxazolyl)methoxyphenyl]ethyl]-2-phenyl-4-oxazolyl]propionic acid] it is 110 to 111 °C.
The figure for `Cc1oc(-c2ccccc2)nc1COc1ccc(COc2cc(CCC(=O)O)n(-c3ccccc3)n2)cc1` [Example 81, 3-[3-[4-(5-methyl-2-phenyl-4-oxazolylmethoxy)benzyloxy]-1-phenyl-1H-pyrazol-5-yl]propionic acid] is 154 to 155 °C; for `COC(=O)Cc1cn(-c2ccccc2)nc1OCc1ccc(OCc2nc(-c3ccccc3)oc2C)c(OC)c1` [Example 51, methyl [3-[3-methoxy-4-(5-methyl-2-phenyl-4-oxazolylmethoxy)benzyloxy]-1-phenyl-1H-pyrazol-4-yl]acetate] it is 107 to 108 °C.
Take `COc1cc(COc2cc(CC(=O)O)n(-c3ccccc3)n2)ccc1OCc1nc(-c2ccco2)oc1C` [Example 77, [3-[4-[2-(2-furyl)-5-methyl-4-oxazolylmethoxy]-3-methoxybenzyloxy]-1-phenyl-1H-pyrazol-5-yl]acetic acid]: the melting point was 145 to 146 °C (dec.).
The figure for `Cc1oc(-c2ccccc2)nc1COc1ccc(CN(C)c2nc(-c3ccccc3)c(CCC(=O)O)s2)cc1.Cl` is 106 to 108 °C; for `COc1cc(COc2nn(-c3ccccc3)cc2CCC(=O)O)ccc1OCc1nc(-c2ccco2)oc1C` [Example 56, 3-[3-[4-[2-(2-furyl)-5-methyl-4-oxazolylmethoxy]-3-methoxybenzyloxy]-1-phenyl-1H-pyrazol-4-yl]propionic acid] it is 161 to 162 °C.
To `Cc1oc(-c2ccccc2)nc1COc1ccc(CSc2nc(CCC(=O)O)n[nH]2)cc1` [Example 18, 3-[5-[4-(5-methyl-2-phenyl-4-oxazolylmethoxy)benzylthio]-1H-1,2,4-triazol-3-yl]propionic acid] belongs 170 to 171 °C; to `COc1cc(COc2cc(CCC(=O)O)n(-c3ccccc3)n2)ccc1OCc1nc(-c2ccccc2)oc1C` [Example 79, 3-[3-[3-methoxy-4-(5-methyl-2-phenyl-4-oxazolylmethoxy)benzyloxy]-1-phenyl-1H-pyrazol-5-yl]propionic acid], 157 to 158 °C.
To `Cc1oc(-c2ccco2)nc1COc1ccc(Cc2nc(CCC(=O)O)c(-c3ccccc3)o2)cc1` [Example 67, 3-[2-[4-[2-(2-furyl)-5-methyl-4-oxazolylmethoxy]benzyl]-5-phenyl-4-oxazolyl]propionic acid] belongs 154 to 155 °C; to `Cc1oc(-c2ccccc2)nc1COc1cc(COc2nn(C)cc2CC(=O)O)ccn1` [Example 28, [1-methyl-3-[2-(5-methyl-2-phenyl-4-oxazolylmethoxy)-4-pyridylmethoxy]-1H-pyrazol-4-yl]acetic acid], 126 to 127 °C.
`Cc1oc(-c2ccco2)nc1COc1ccc(Cc2nc(-c3ccccc3)c(CCC(=O)O)o2)cc1` [Example 69, 3-[2-[4-[2-(2-furyl)-5-methyl-4-oxazolylmethoxy]benzyl]-4-phenyl-5-oxazolyl]propionic acid]: the melting point lay within 74 to 76 °C.
